# Assay results: ChEMBL document CHEMBL1158065, “Prenylated phenolics from Ganoderma fornicatum” (J Nat Prod, 2006)
# Test system: HEp-2
# Assay: Cytotoxicity against human Hep2 cells by MTT method
# Type: functional, cell-based
structure (smiles),measurement,value
CC(C)=CCC/C(C)=C/CCC(CC(=O)c1cc(O)ccc1O)C(=O)O (configuration not stated) [FORNICIN C],IC50,23 µg/mL
COC1(c2cc(O)ccc2O)C=C(CC/C=C(\C)CCC=C(C)C)C(=O)O1 (configuration not stated) [FORNICIN B],IC50,15 µg/mL
